Laboratory results as given in ChEMBL document CHEMBL1123701, “Synthesis and quantitative structure-activity relationship analysis of N-triiodoallyl- and N-iodopropargylazoles. New antifungal agents” (1987).
≈ marks a conversion by molar mass, not a printed value.

Each compound was assayed on Cryptococcus neoformans (assay: Antifungal activity against Cryptococcus neoformans Cr-1 strain).
Format: functional
For `Cc1nccn1CC(I)=C(I)I`, the MIC was 25 µg/mL (≈ 50 µM). `IC#CCn1nnc(Cc2ccccc2)n1` showed an MIC of 6.25 µg/mL (≈ 19.3 µM). With `IC(I)=C(I)Cn1cncn1` the MIC was 6.25 µg/mL (≈ 12.8 µM). With `O=[N+]([O-])c1ccc(-c2nnn(CC(I)=C(I)I)n2)cc1` the MIC was greater than 100 µg/mL. In the case of `COc1ccc(-c2nnnn2CC(I)=C(I)I)cc1`, the MIC was 0.78 µg/mL (≈ 1.31 µM). `IC(I)=C(I)Cn1nccn1` was tested, and the MIC was 1.56 µg/mL (≈ 3.2 µM). Compound `O=[N+]([O-])c1c(Cl)cccc1-c1cn(CC(I)=C(I)I)cc1Cl` has an MIC of 12.5 µg/mL (≈ 18.5 µM). `IC#CCn1nnnc1Cc1ccccc1` was tested, and the MIC was 12.5 µg/mL (≈ 38.6 µM). For `IC#CCn1nnnc1C1CC1`, the MIC was 12.5 µg/mL (≈ 45.6 µM). In the case of `COC(=O)c1cc([N+](=O)[O-])cn1CC(I)=C(I)I`, the MIC was 3.13 µg/mL (≈ 5.32 µM). `IC#CCn1cnnn1` gave an MIC of 0.78 µg/mL (≈ 3.33 µM). `Clc1ccccc1-c1nnn(CC#CI)n1` showed an MIC of 1.56 µg/mL (≈ 4.53 µM). Work on `IC(I)=C(I)Cn1nnc(C2CC2)n1` yielded an MIC of 3.13 µg/mL (≈ 5.93 µM). `CCOCCc1nnnn1CC(I)=C(I)I` gave an MIC of 6.25 µg/mL (≈ 11.2 µM). For `CCCCCc1nnnn1CC#CI`, the MIC was 3.13 µg/mL (≈ 10.3 µM). With `IC(I)=C(I)Cn1ccnn1` the MIC was 6.25 µg/mL (≈ 12.8 µM).

Each compound was assayed on Candida albicans (assay: Antifungal activity against Candida albicans C-A-24 strain).
Format: functional
`Cc1nccn1CC(I)=C(I)I` gave an MIC of 12.5 µg/mL (≈ 25 µM). For `IC#CCn1nnc(Cc2ccccc2)n1`, the MIC was 6.25 µg/mL (≈ 19.3 µM). `IC(I)=C(I)Cn1cncn1` was tested, and the MIC was 1.56 µg/mL (≈ 3.2 µM). Compound `O=[N+]([O-])c1ccc(-c2nnn(CC(I)=C(I)I)n2)cc1` has an MIC greater than 100 µg/mL. Work on `COc1ccc(-c2nnnn2CC(I)=C(I)I)cc1` yielded an MIC of 6.25 µg/mL (≈ 10.5 µM). `IC(I)=C(I)Cn1nccn1` was tested, and the MIC was 0.78 µg/mL (≈ 1.6 µM). In the case of `O=[N+]([O-])c1c(Cl)cccc1-c1cn(CC(I)=C(I)I)cc1Cl`, the MIC was 12.5 µg/mL (≈ 18.5 µM). Work on `IC#CCn1nnnc1Cc1ccccc1` yielded an MIC of 12.5 µg/mL (≈ 38.6 µM). Compound `IC#CCn1nnnc1C1CC1` has an MIC of 12.5 µg/mL (≈ 45.6 µM). `COC(=O)c1cc([N+](=O)[O-])cn1CC(I)=C(I)I` gave an MIC of 3.13 µg/mL (≈ 5.32 µM). With `IC#CCn1cnnn1` the MIC was 3.13 µg/mL (≈ 13.4 µM). In the case of `Clc1ccccc1-c1nnn(CC#CI)n1`, the MIC was 1.56 µg/mL (≈ 4.53 µM). `IC(I)=C(I)Cn1nnc(C2CC2)n1` showed an MIC of 3.13 µg/mL (≈ 5.93 µM). For `CCOCCc1nnnn1CC(I)=C(I)I`, the MIC was 6.25 µg/mL (≈ 11.2 µM). Work on `CCCCCc1nnnn1CC#CI` yielded an MIC of 3.13 µg/mL (≈ 10.3 µM). `IC(I)=C(I)Cn1ccnn1` was tested, and the MIC was 3.13 µg/mL (≈ 6.43 µM).

The compounds below were run on Aspergillus fumigatus (assay: Antifungal activity against Aspergillus fumigatus Saito strain).
Format: functional
`Cc1nccn1CC(I)=C(I)I` showed an MIC of 6.25 µg/mL (≈ 12.5 µM). `IC#CCn1nnc(Cc2ccccc2)n1` was tested, and the MIC was 0.78 µg/mL (≈ 2.41 µM). In the case of `IC(I)=C(I)Cn1cncn1`, the MIC was 0.2 µg/mL (≈ 0.411 µM). Compound `O=[N+]([O-])c1ccc(-c2nnn(CC(I)=C(I)I)n2)cc1` has an MIC greater than 100 µg/mL. `COc1ccc(-c2nnnn2CC(I)=C(I)I)cc1` was tested, and the MIC was 0.78 µg/mL (≈ 1.31 µM). For `IC(I)=C(I)Cn1nccn1`, the MIC was 0.39 µg/mL (≈ 0.801 µM). `O=[N+]([O-])c1c(Cl)cccc1-c1cn(CC(I)=C(I)I)cc1Cl` was tested, and the MIC was 12.5 µg/mL (≈ 18.5 µM). For `IC#CCn1nnnc1Cc1ccccc1`, the MIC was 1.56 µg/mL (≈ 4.81 µM). With `IC#CCn1nnnc1C1CC1` the MIC was 3.13 µg/mL (≈ 11.4 µM). `COC(=O)c1cc([N+](=O)[O-])cn1CC(I)=C(I)I` gave an MIC of 1.56 µg/mL (≈ 2.65 µM). For `IC#CCn1cnnn1`, the MIC was 1.56 µg/mL (≈ 6.67 µM). With `Clc1ccccc1-c1nnn(CC#CI)n1` the MIC was 0.78 µg/mL (≈ 2.26 µM). `IC(I)=C(I)Cn1nnc(C2CC2)n1` gave an MIC of 0.39 µg/mL (≈ 0.739 µM). With `CCOCCc1nnnn1CC(I)=C(I)I` the MIC was 3.13 µg/mL (≈ 5.59 µM). Work on `CCCCCc1nnnn1CC#CI` yielded an MIC of 0.39 µg/mL (≈ 1.28 µM). `IC(I)=C(I)Cn1ccnn1` was tested, and the MIC was 0.78 µg/mL (≈ 1.6 µM).

Each compound was assayed on Trichophyton benhamiae (assay: Antifungal activity towards Trichophyton mentagrophytes 530324 strain).
Format: functional, Arthroderma benhamiae
`Cc1nccn1CC(I)=C(I)I` gave an MIC of 6.25 µg/mL (≈ 12.5 µM). Compound `IC#CCn1nnc(Cc2ccccc2)n1` has an MIC of 0.1 µg/mL (≈ 0.309 µM). With `IC(I)=C(I)Cn1cncn1` the MIC was 0.78 µg/mL (≈ 1.6 µM). `O=[N+]([O-])c1ccc(-c2nnn(CC(I)=C(I)I)n2)cc1` was tested, and the MIC was greater than 100 µg/mL. Work on `COc1ccc(-c2nnnn2CC(I)=C(I)I)cc1` yielded an MIC of 0.1 µg/mL (≈ 0.168 µM). `IC(I)=C(I)Cn1nccn1` showed an MIC of 0.2 µg/mL (≈ 0.411 µM). `O=[N+]([O-])c1c(Cl)cccc1-c1cn(CC(I)=C(I)I)cc1Cl` showed an MIC of 3.13 µg/mL (≈ 4.64 µM). `IC#CCn1nnnc1Cc1ccccc1` showed an MIC of 0.78 µg/mL (≈ 2.41 µM). For `IC#CCn1nnnc1C1CC1`, the MIC was 1.56 µg/mL (≈ 5.69 µM). In the case of `COC(=O)c1cc([N+](=O)[O-])cn1CC(I)=C(I)I`, the MIC was 0.39 µg/mL (≈ 0.663 µM). Work on `IC#CCn1cnnn1` yielded an MIC of 1.56 µg/mL (≈ 6.67 µM). With `Clc1ccccc1-c1nnn(CC#CI)n1` the MIC was 0.1 µg/mL (≈ 0.29 µM). In the case of `IC(I)=C(I)Cn1nnc(C2CC2)n1`, the MIC was 0.2 µg/mL (≈ 0.379 µM). With `CCOCCc1nnnn1CC(I)=C(I)I` the MIC was 0.1 µg/mL (≈ 0.179 µM). With `CCCCCc1nnnn1CC#CI` the MIC was 0.2 µg/mL (≈ 0.658 µM). `IC(I)=C(I)Cn1ccnn1` was tested, and the MIC was 0.39 µg/mL (≈ 0.801 µM).

The compounds below were run on Trichophyton interdigitale (assay: Antifungal activity towards Trichophyton interdigitale).
Format: functional
`Cc1nccn1CC(I)=C(I)I` gave an MIC of 3.13 µg/mL (≈ 6.26 µM). With `IC#CCn1nnc(Cc2ccccc2)n1` the MIC was 0.1 µg/mL (≈ 0.309 µM). `IC(I)=C(I)Cn1cncn1` was tested, and the MIC was 0.39 µg/mL (≈ 0.801 µM). `O=[N+]([O-])c1ccc(-c2nnn(CC(I)=C(I)I)n2)cc1` showed an MIC greater than 100 µg/mL. Compound `COc1ccc(-c2nnnn2CC(I)=C(I)I)cc1` has an MIC of 0.39 µg/mL (≈ 0.657 µM). For `IC(I)=C(I)Cn1nccn1`, the MIC was 0.39 µg/mL (≈ 0.801 µM). `O=[N+]([O-])c1c(Cl)cccc1-c1cn(CC(I)=C(I)I)cc1Cl` showed an MIC of 6.25 µg/mL (≈ 9.26 µM). Compound `IC#CCn1nnnc1Cc1ccccc1` has an MIC of 0.39 µg/mL (≈ 1.2 µM). Work on `IC#CCn1nnnc1C1CC1` yielded an MIC of 3.13 µg/mL (≈ 11.4 µM). Work on `COC(=O)c1cc([N+](=O)[O-])cn1CC(I)=C(I)I` yielded an MIC of 0.39 µg/mL (≈ 0.663 µM). `IC#CCn1cnnn1` gave an MIC of 1.56 µg/mL (≈ 6.67 µM). Work on `Clc1ccccc1-c1nnn(CC#CI)n1` yielded an MIC of 0.1 µg/mL (≈ 0.29 µM). In the case of `IC(I)=C(I)Cn1nnc(C2CC2)n1`, the MIC was 0.2 µg/mL (≈ 0.379 µM). Compound `CCOCCc1nnnn1CC(I)=C(I)I` has an MIC of 1.56 µg/mL (≈ 2.79 µM). Compound `CCCCCc1nnnn1CC#CI` has an MIC of 0.1 µg/mL (≈ 0.329 µM). `IC(I)=C(I)Cn1ccnn1` showed an MIC of 0.78 µg/mL (≈ 1.6 µM).
